Results: EP4740947A1, “PHARMACEUTICAL COMBINATION OF EGFR KINASE INHIBITOR AND C-MET KINASE INHIBITOR FOR TREATING TUMOR DISEASES” (Jiangsu AoSaiKang Pharmaceutical Co., Ltd., priority 2023, dated 2025)
“And” between values parts separate entries of the source, which are not always exact repeats. Equal entries are not always repeated.

Assays:
[1] = Body weight monitoring and daily observation in the NCI-H1975-HGF xenograft model; format: in vivo
Procedure: 4) After inoculation, the tumor volume and weight were measured twice a week. When the average tumor volume reached about 100 mm^3, the animals were randomly divided into 4 groups according to the tumor volume and weight, each group having 3 animals. The animals were immediately administered after grouping. The day of administration was regarded as day 0. Table 3. Grouping and administration information
After inoculation, the disease attack and death of animals were observed every working day. Daily observation includes tumor growth and the effects of drugs on test animals, such as changes in activity, changes in food and water intake, weight loss, appearance changes in hair and eyes, death and other clinical symptoms.
After inoculation and before grouping, the weight of test animals was measured once a week. After grouping, the weight of the test animals was measured twice a week.

[2] = system: LD1-0025-200662 human lung cancer tissue; assay: Efficacy study in patient derived xenograft (PDX) tumor model established with LD1-0025-200662 human lung cancer tissue; format: in vivo, NU/NU mice; settings: for Complete tumor regression (%): rate of mice, observed by naked eyes on day 21; for T/C% Day 21: relative tumor proliferation rate; for T/C (%) (tumor weight): tumor weight vs vehicle
Procedure: NU/NU mice were subcutaneously inoculated with human lung cancer tissue LD1-0025-200662 to establish an in-vivo xenograft tumor model, and then the efficacy of the test drugs ASK-MET alone, ASK-EGFR alone, ASK-MET+ASK-EGFR in combination and RefT+ ASK-EGFR in combination in the model were evaluated.
LD1-0025-200662 (see Table 8), a patient derived human lung cancer tissue, was sub-cultured to FP3+3 passages for this efficacy test. Table 8. Xenograft tumor model
NU/NU mice, female, age: 42-62 days, weight: 18-22 g, purchased from Zhejiang Vital River Laboratory Animal Technology Co., Ltd. (Production license: SCXK(Zhe)2019-0001).
• Vehicle: 20% solutol/80% 100 mM sodium acetate buffer pH 5.5; • ASK-MET: hydrochloride of the compound of Formula (II), prepared with 20% solutol/80% 100 mM sodium acetate buffer pH 5.5, concentration: 0.1 mg/mL, 0.3 mg/mL; • ASK-EGFR: compound of Formula (I), prepared with 0.5% sodium carboxymethyl cellulose solution (0.5%CMC-Na), concentration: 2 mg/mL; • RefT: prepared with 20% solutol/80% 100 mM sodium acetate buffer pH 5.5, concentration: 0.3 mg/mL; RefT is a small-molecule MET kinase inhibitor approved by USFDA.
(§1) Immunodeficient mice were subcutaneously inoculated with LD1-0025-200662 tumor tissue, and observed continuously till tumor formation. When the tumor volume reached about 1000 mm^3, the tumor tissue was peeled off and cut into tumor tissue with a size of about 3 mm × 3 mm × 3 mm (about 50-90 mg), and inoculated subcutaneously in NU/NU mice. The inoculated mice were observed and the growth of tumor was monitored. When the average tumor volume of tumor-bearing mice reached 193.40 mm^3, the mice were randomly divided into groups, administered and observed. The tumor volume and weight of all tumor-bearing mice were measured before grouping, and the tumor-bearing mice were randomly grouped according to the measured tumor volume. According to the principle of random block design, the mice were first divided into blocks according to the tumor volume, and then the mice in each block were randomly assigned to each treatment group. Table 9. Administration and treatment
5.1 Measurement of tumor volume and weight of tumor-bearing mice: The measurement was made twice a week by using a vernier caliper, and the tumor volume was calculated by a formula V = 0.5 × a × b^2, where a and b were respectively the major and minor diameters of the tumor.
5.2 Tumor growth inhibition TGI (%)= [1-(Ti-T0) / (Vi-V0)] × 100, where Ti-T0>0; TGI (%) = [1-(Ti-T0)/ T0] × 100, where Ti-T0<0. T0 was the average tumor volume at the first administration in the treatment group, Ti was the average tumor volume at a certain measurement after administration in the treatment group, V0 was the average tumor volume at the first administration in the vehicle control group, and Vi was the average tumor volume at a certain measurement after administration in the vehicle control group.
5.3 Relative tumor proliferation rate T/C (%): The calculation formula is as follows: T/C % = TRTV / CRTV × 100 % (TRTV: RTV of the treatment group; CRTV: RTV of the negative control group). According to the results of tumor measurement, the relative tumor volume (RTV) was calculated by a formula RTV = Vt / V0, where V0 was the average tumor volume measured at the time of grouping for administration (that is, d0), Vt was the average tumor volume measured at a certain measurement, and TRTV and CRTV data of the same day was used.
5.4 Synergistic effect in combined treatment group: Jin's formula Q=E(a+b)/[Ea+Eb-Ea × Eb], where Ea was TGI of a drug alone, and Q value>1 reflected that drug combination has a synergistic effect.
5.5 After the experiment, the tumor was stripped, weighed and photographed. T/Cweight%= Tweight /Vweight × 100%, where Tweight was the average tumor weight of the compound group at the end of the experiment, and Vweight was the average tumor weight of the vehicle control group at the end of the experiment.
All data is expressed as Mean±SEM. […]

[3] = Body weight change and tolerance of tumor-bearing mice in the LD1-0025-200662 PDX model; format: in vivo; settings: for Rate of weight change (%) Day 21: Day 21 vs Day 0
Procedure: as §1
During the whole experiment, the use and observation of test animals were carried out in accordance with the relevant regulations of Guide for the Care and Use of Laboratory Animals of AAALAC. After the test animals were inoculated with the tumor tissue, they were observed every day and the disease attack and death were recorded. During the routine experiment, all the test animals were monitored and recorded for behavior, food intake, water intake, weight change, hair luster and other abnormal conditions.
5.6 The weight of tumor-bearing mice was measured twice a week, and the change rate of weight gain of mice after administration was calculated: RCBW(%) = (BWi - BW0) / BW0 × 100, where BWi was the average weight at a certain measurement after administration, and BW0 was the average weight at the first administration.

[4] = ASK-EGFR 20 mg/kg p.o. QD×21 (G2)
[5] = Day 21, ASK-EGFR 20 mg/kg p.o. QD×21 (G2)
[6] = ASK-MET 1 mg/kg p.o. QD×(D0-D7) (G3)
[7] = ASK-MET 3 mg/kg p.o. QD×(D0-D7) (G4)
[8] = Day 21, ASK-MET 1 mg/kg p.o. QD×(D0-D7) (G3)
[9] = Day 21, ASK-MET 3 mg/kg p.o. QD×(D0-D7) (G4)

C=CC(=O)Nc1cc(Nc2ncc(Cl)c(Nc3ccc4ccccc4c3)n2)c(OC)cc1N(C)CCN(C)C [ASK-EGFR, N-((5-((5-chloro-4-((naphthalen-2-yl)amino))pyrimidin-2-yl)amino)-2-((N-methyl-N-dimethylaminoethyl)amino)-4-methoxyphenyl) acrylamide]
Weight ([1]; Day 0, ASK-EGFR 20 mg/kg p.o. QD×15 (G4)): 22.0 ± 0.1 g
Weight ([1]; Day 2, ASK-EGFR 20 mg/kg p.o. QD×15 (G4)): 21.9 ± 0.2 g
Weight ([1]; Day 5, ASK-EGFR 20 mg/kg p.o. QD×15 (G4)): 22.1 ± 0.1 g
Weight ([1]; Day 8, ASK-EGFR 20 mg/kg p.o. QD×15 (G4)): 21.1 ± 0.3 g
Weight ([1]; Day 12, ASK-EGFR 20 mg/kg p.o. QD×15 (G4)): 21.5 ± 0.6 g
Weight ([1]; Day 15, ASK-EGFR 20 mg/kg p.o. QD×15 (G4)): 21.0 ± 0.5 g
Tumor volume (mm^3) (Mean ± SEM) Day 0 [2, 4]: 169.31±14.43 mm^3
Tumor volume (mm^3) (Mean ± SEM) Day 21 [2, 5]: 1239.58±146.6 mm^3
Tumor weight (g) (Mean ± SEM) Day 21 after treatment [2, 5]: 1.19 ± 0.16 g
TGI% Day 21 ([2]; Day 21 vs vehicle, ASK-EGFR 20 mg/kg p.o. QD×21 (G2)): 1.96%
Complete tumor regression (%) [2, 4]: 0.00% and 0 (0/8) %
T/C% Day 21 [2, 5]: 98.77%
T/C (%) (tumor weight) [2, 5]: 93.41%
Average weight (g) (Mean ± SEM) Day 0 [3, 4]: 23.24 ± 0.47 g
Average weight (g) (Mean ± SEM) Day 21 [3, 4]: 24.75 ± 0.64 g
Rate of weight change (%) Day 21 [3, 4]: 6.45±1.28%

CC(C)(O)CN1CCC(COc2cnc(-c3cccc(Cn4c(=O)ccn5c6cc(C#N)ccc6nc45)c3)nc2)CC1 [ASK-MET]
Weight ([1]; Day 0, ASK-MET 2 mg/kg p.o. QD×15 (G2)): 20.3 ± 1.0 g
Weight ([1]; Day 2, ASK-MET 2 mg/kg p.o. QD×15 (G2)): 20.3 ± 1.3 g
Weight ([1]; Day 5, ASK-MET 2 mg/kg p.o. QD×15 (G2)): 20.5 ± 1.0 g
Weight ([1]; Day 8, ASK-MET 2 mg/kg p.o. QD×15 (G2)): 20.8 ± 0.3 g
Weight ([1]; Day 12, ASK-MET 2 mg/kg p.o. QD×15 (G2)): 20.8 ± 0.4 g
Weight ([1]; Day 15, ASK-MET 2 mg/kg p.o. QD×15 (G2)): 20.5 ± 0.4 g
complete tumor regression of tumor-bearing mice (in words) ([2]; ASK-MET 1 mg/kg (G3)): varying degrees of complete tumor regression
inhibition on the growth of subcutaneous xenograft tumor ([2]; ASK-MET 1 mg/kg (G3)): statistically significant inhibition
complete tumor regression of tumor-bearing mice (in words) ([2]; ASK-MET 3 mg/kg (G4)): varying degrees of complete tumor regression
inhibition on the growth of subcutaneous xenograft tumor ([2]; ASK-MET 3 mg/kg (G4)): statistically significant inhibition
Tumor volume (mm^3) (Mean ± SEM) Day 0 [2, 6]: 168.78±15.38 mm^3
Tumor volume (mm^3) (Mean ± SEM) Day 0 [2, 7]: 170.65±12.40 mm^3
Tumor volume (mm^3) (Mean ± SEM) Day 21 [2, 8]: 116.01±35.11 mm^3
Tumor weight (g) (Mean ± SEM) Day 21 after treatment [2, 8]: 0.12 ± 0.04 g
TGI% Day 21 ([2]; Day 21, ASK-MET 1 mg/kg p.o. QD×(D0-D7) (G3), above 100 = regression by formula of b100): 131.27%
Tumor volume (mm^3) (Mean ± SEM) Day 21 [2, 9]: 3.54±2.35 mm^3
Tumor weight (g) (Mean ± SEM) Day 21 after treatment [2, 9]: 0.01 ± 0.00 g
TGI% Day 21 ([2]; Day 21, ASK-MET 3 mg/kg p.o. QD×(D0-D7) (G4), above 100 = regression by formula of b100): 197.93%
Complete tumor regression (%) [2, 6]: 12.5% and 12.5 (1/8) %
Complete tumor regression (%) [2, 7]: 75% and 75 (6/8) %
T/C% Day 21 [2, 8]: 9.27%
T/C% Day 21 [2, 9]: 0.28%
T/C (%) (tumor weight) [2, 8]: 9.18%
T/C (%) (tumor weight) [2, 9]: 0.39%
Average weight (g) (Mean ± SEM) Day 0 [3, 6]: 24.08 ± 0.53 g
Average weight (g) (Mean ± SEM) Day 0 [3, 7]: 24.02 ± 0.37 g
Average weight (g) (Mean ± SEM) Day 21 [3, 6]: 25.24 ± 0.50 g
Average weight (g) (Mean ± SEM) Day 21 [3, 7]: 25.03 ± 0.45 g
Rate of weight change (%) Day 21 [3, 6]: 4.88±0.71%
Rate of weight change (%) Day 21 [3, 7]: 4.19±1.08%
